Data set [1] addresses T1, matriptase (Homo sapiens, UniProt Q9Y5Y6).
T1 construct: purchased R&D Systems (Bio-Techne) 3946-SEB
T1 sequence (Q9Y5Y6 615-855 limits assumed): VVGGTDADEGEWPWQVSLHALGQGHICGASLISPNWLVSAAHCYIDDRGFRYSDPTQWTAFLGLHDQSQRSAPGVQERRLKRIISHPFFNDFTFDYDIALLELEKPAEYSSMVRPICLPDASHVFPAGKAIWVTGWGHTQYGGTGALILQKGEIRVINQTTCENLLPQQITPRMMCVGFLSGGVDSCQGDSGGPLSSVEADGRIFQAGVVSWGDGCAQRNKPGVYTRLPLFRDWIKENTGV
The experiment in a line: E. coli display cleavage reporter assay, flow cytometry, matriptase treatment. It counts as biochemical. The conditions noted are these: for cleavage reporter signal of matriptase-treated compared to untreated cells / time to complete cleavage: E. coli-displayed substrate; for cleavage reporter signal of matriptase-treated compared to untreated cells: 100 nM matriptase, 30 min, 37°C, n = 3; for time to complete cleavage: flow cytometry; for relative cleavage efficiency group (high, medium, low): E. coli-displayed substrate, 1, 10, 25 and 50 nM matriptase over 90 min.

The target in data set [2] is urokinase-type plasminogen activator (uPA) (Homo sapiens, UniProt P00749). The data set can be described thus: FRET substrate stability against uPA. It counts as in vitro ADME. The conditions noted are these: 30 μM Abz/Dnp peptide, 10 nM uPA, appropriate buffer, 37°C, 100 min (6,000 s), fluorescence, three replicates. How it is done: (§1) (cysteine protease), urokinase plasminogen[36] (uPA; serine protease), and MMP-2[37] (matrix metalloprotease), respectively.
(§2) Initial velocity (V0) was calculated from early linear slopes. […] Fluorescence was recorded for 6000 s.

Data set [3] deals with TEV protease (Tobacco etch virus, UniProt P04517). The data set can be described thus: E. coli display cleavage reporter assay, flow cytometry, TEV protease treatment. The conditions noted are these: E. coli-displayed substrate, 100 nM TEV, 30 min, 30°C, n = 3. Background: A reporter such as luciferase makes a cellular process visible.
Chain of TEV protease (P04517 2038-2279): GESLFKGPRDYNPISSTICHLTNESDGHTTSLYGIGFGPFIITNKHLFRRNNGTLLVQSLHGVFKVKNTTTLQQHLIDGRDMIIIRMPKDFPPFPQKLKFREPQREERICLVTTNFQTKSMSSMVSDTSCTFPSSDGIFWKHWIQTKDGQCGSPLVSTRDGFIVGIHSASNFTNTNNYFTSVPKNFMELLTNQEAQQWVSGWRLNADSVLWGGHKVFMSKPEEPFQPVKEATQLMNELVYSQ
Data set [4] addresses T2, legumain (Homo sapiens, UniProt Q99538).
T2 construct: purchased R&D Systems (Bio-Techne) 2199-CY
T2 sequence (Q99538 18-433): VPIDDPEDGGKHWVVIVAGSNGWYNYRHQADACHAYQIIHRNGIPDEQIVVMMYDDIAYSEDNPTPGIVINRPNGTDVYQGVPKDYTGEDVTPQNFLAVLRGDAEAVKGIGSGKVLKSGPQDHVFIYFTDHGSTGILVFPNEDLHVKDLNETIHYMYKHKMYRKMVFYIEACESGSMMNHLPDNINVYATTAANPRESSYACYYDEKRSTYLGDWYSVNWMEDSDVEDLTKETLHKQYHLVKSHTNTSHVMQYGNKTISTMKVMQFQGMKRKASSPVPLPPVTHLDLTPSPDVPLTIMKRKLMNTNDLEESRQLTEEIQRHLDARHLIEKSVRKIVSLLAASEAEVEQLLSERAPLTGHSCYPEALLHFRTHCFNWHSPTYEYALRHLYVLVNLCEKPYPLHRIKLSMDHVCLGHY
The data set can be described thus: FRET substrate stability against legumain. It counts as in vitro ADME. The conditions noted are these: 30 μM Abz/Dnp peptide, 10 nM legumain, appropriate buffer, 37°C, 100 min (6,000 s), fluorescence, three replicates. How it is done: as §1, §2

Data set [5] deals with T1, matriptase. The experiment in a line: Cleavage of soluble substrates in affibody-ABD format, SDS-PAGE. It counts as biochemical. Conditions: 37°C; for cleavage: affibody-ABD fusion 50 μg/mL in PBS, SDS-PAGE densitometry (ImageJ). As for the experimental part:
Affibody-ABD substrates (50 μg/mL in PBS) were treated with 1, 10, or 50 nM matriptase at 37°C for 10, 30, or 60 min. Reactions were quenched by adding SDS loading buffer (31.2 mM Tris-HCl, pH 6.8, 1% SDS, 12.5% glycerol, 0.01% bromophenol blue, 5 mM TCEP) and heating at 90°C for 10 min. Samples were analyzed by SDS-PAGE as above. High-resolution gel images (600 dpi) were analyzed using ImageJ (v1.54i). Band intensities were quantified to assess the fraction of cleaved vs. intact substrate. Data were processed in Microsoft Excel and visualized with GraphPad Prism 10.

The target of data set [6] is T1, matriptase. The experiment in a line: FRET-based kinetic analysis of matriptase cleavage. Type of data set: biochemical. The conditions noted are these: 10 nM matriptase; for substrate cleavage by matriptase under identical conditions: 30 μM Abz/Dnp peptide, 37°C, 6,000 s, three replicates; for Vmax / Km / kcat/KM / kcat: Abz/Dnp-labelled 6-mer peptide, PBS, 37°C, n = 3; for Vmax / Km / kcat: Michaelis-Menten fit; for Vmax / kcat/KM / kcat: average ± SD; for kcat: serial dilution of substrate, 90 min, Ex 320/Em 420 nm.

For data set [7], the target named is T1, matriptase. Type of data set: biochemical.
Data set [8] addresses T1, matriptase. The conditions noted are these: previously reported value; cited from earlier work. As for the experimental part: The most promising newly discovered substrates (MtpB9, MtpC5, and MtpC9), along with control substrates, were chemically synthesized and linked to 2-aminobenzoyl (Abz) and 2,4-dinitrophenyl (Dnp), a standard fluorophore/quencher combination used in FRET assays (Figure 4A). A serial dilution of the substrates (ranging from 120 to 1.75 μM) was used to monitor matriptase cleavage activity. The reaction was tracked by measuring the Abz fluorescence continuously for 90 min. Kinetic parameters were calculated by fitting the cleavage rates to substrate concentrations using the Michaelis-Menten equati ...

In general, Vmax refers to the rate approached at saturating substrate. One may read the Km as the concentration of substrate that gives half-maximal velocity. The kcat is the maximal rate divided by the concentration of active sites.

Values joined by “and” are separate entries in the source; they are usually repeats but may differ in a detail not shown here. Identical values can stand only once. Like-named read-outs stand apart in the source and are kept apart here. A value given as a limit tells only on which side of the number the result lay.

For “ENLYFQG [TEV-control, TEV protease substrate, non-cleavable control for matriptase, reference compound]”, the “cleavage reporter signal of matriptase-treated compared to untreated cells” value in data set [1] was “No significant difference”. Further, in data set [2], the “substrate cleavage by uPA” value is given as “No detectable cleavage”. The “cleavage reporter signal of TEV-treated compared to untreated cells” value in data set [3] is “significantly lower signals”. The “substrate cleavage by legumain” value in data set [4] is “No detectable cleavage”. Further, the “cleavage under any tested conditions” value in data set [5] (affibody-ABD fusion, 1, 10 or 50 nM matriptase, 10, 30 or 60 min, SDS-PAGE) is listed as “no cleavage”.
For the substance GAKSRR [MtpB9], in data set [1] (10 nM matriptase), the “time to complete cleavage” value came out at 60 min. Moreover, the “time to complete cleavage” value in data set [1] (25 nM matriptase) is at most 30 min. Besides, in data set [1], the “relative cleavage efficiency group (high, medium, low)” value (shortened to “relative cleavage efficiency group”) is recorded as “high”. In data set [2], the “substrate cleavage by uPA” value was “No detectable substrate cleavage”. Further, in data set [6], the “substrate cleavage by matriptase under identical conditions” value (“substrate cleavage by matriptase” for short) is “cleavage was observed”, the Vmax is 0.04 ± 0.0007 µM/s, the Km worked out at 18.7 µM and the kcat/KM is recorded as 2.3E+05 ± 3,948 M^−1 s^−1. In addition, the kcat in data set [6] is 4.4 ± 0.07 s⁻¹. The “substrate cleavage by legumain” value in data set [4] is recorded as “No detectable substrate cleavage”. Also, the “time to complete cleavage” value in data set [7] is listed as at most 30 min.
HYKGRK [MtpC9]: in data set [1] (10 nM matriptase), the “time to complete cleavage” value came to 60 min. Further, the “time to complete cleavage” value in data set [1] (25 nM matriptase) is on record as at most 30 min. Besides, the “relative cleavage efficiency group” value in data set [1] is “high”. For the same substance, the “substrate cleavage by uPA” value in data set [2] is reported as “No detectable substrate cleavage”. In data set [6], the “substrate cleavage by matriptase” value is given as “cleavage was observed”, the Vmax was determined as 0.06 ± 0.0021 µM/s, the Km was found to be 29.1 µM and the kcat/KM was 1.9E+05 ± 7,099 M^−1 s^−1. In addition, the kcat in data set [6] was found to be 5.6 ± 0.21 s⁻¹. Also, the “substrate cleavage by legumain” value in data set [4] is on record as “No detectable substrate cleavage”. The “time to complete cleavage” value in data set [7] is listed as at most 30 min.
For LKRLMR [MtpA6], in data set [1], the “relative cleavage efficiency group” value is listed as “low”.
“LSGRSDNH [Mtp-control, reference compound]”: in data set [1], the “cleavage reporter signal of matriptase-treated compared to untreated cells” value is listed as “significantly lower signals”. Besides, the “substrate cleavage by uPA” value in data set [2] was “No detectable cleavage”. Also, in data set [6], the Vmax was 0.02 ± 0.0057 µM/s; the Km amounted to 191 µM; the kcat/KM was 1.28E+04 ± 2,969 M^−1 s^−1 and 1.3E+04 ± 2,969 M^−1 s^−1; the kcat is 2.5 ± 0.57 s⁻¹. Besides, the “cleavage reporter signal of TEV-treated compared to untreated cells” value in data set [3] was “No significant difference”. Further, in data set [4], the “substrate cleavage by legumain” value is reported as “No detectable cleavage”. Moreover, the “kcat/KM in the previous study” value in data set [8] is 2200 M⁻¹ s⁻¹. The substance also registered a cleavage in data set [5] (50 nM matriptase, 1 h) of 96%.
Consider MGRSFY [MtpB11], for which, in data set [1], the “relative cleavage efficiency group” value is on record as “medium”.
With MKRKAR [MtpC10], the “relative cleavage efficiency group” value in data set [1] is given as “medium”.
Same read-out and setting: for PFKRQL [MtpC12] the value was “low”.
On to VPRGRR [MtpC5], for which the “time to complete cleavage” value in data set [1] (10 nM matriptase) was 60 min. The “time to complete cleavage” value in data set [1] (25 nM matriptase) is at most 30 min. Moreover, the “relative cleavage efficiency group” value in data set [1] was “high”. In addition, the “substrate cleavage by uPA” value in data set [2] is on record as “No detectable substrate cleavage”. Further, in data set [6], the “substrate cleavage by matriptase” value is reported as “cleavage was observed”; the Vmax came to 0.06 ± 0.0005 µM/s; the Km was determined as 12.5 µM; the kcat/KM was 5.13E+05 ± 3,910 M^−1 s^−1 and 5.1E+05 ± 3,910 M^−1 s^−1. In data set [6], the turnover number (kcat) was determined as 6.4 ± 0.05 s⁻¹. Also, in data set [4], the “substrate cleavage by legumain” value is “No detectable substrate cleavage”. The cleavage entry in data set [5] (1 nM matriptase, 10 min, two replicates) is given as “approximately 86%”. Moreover, in data set [7], the “time to complete cleavage” value is at most 30 min.

The values are drawn from PMC12272249, “Engineering high-efficiency matriptase substrates using E. coli display for applications in prodrug activation” (Cell Reports Methods, 2025).
